{"source": "patent US11026896B2", "about": "“Transdermal penetrant formulations containing cannabidiol” (AMPERSAND BIOPHARMACEUTICALS, INC., priority 2019, dated 2021)", "assay": "Plasma pharmacokinetic profile of CBD after a single topical dose to CD-1 mice (In-life Study 1901002-01, LC-MS/MS)", "type": "in vivo", "settings": "single topical dose 0.1 mL, mouse plasma", "protocol": "The objective of this study was to determine the plasma pharmacokinetic (PK) profile of test article cannabidiol (CBD) following the administration of a single topical dose to CD-1 mice. The work was conducted at Alliance Pharma with a title of In-life Study 1901002-01. Although the in-life study was not intended to be conducted in compliance with Good Laboratory Practice regulations, the study was conducted in accordance with Alliance Pharma's IACUC (Institutional Animal Care and Use Committee) Protocol No. 2016-02_V4 and Alliance Pharma's standard operating procedures (SOPs). In addition, the pharmacokinetic analyses of mouse plasma samples were conducted in accordance with Alliance Pharma SOPs.\nA total of 72 mouse (CD-1) plasma samples were transferred from Alliance Pharma's in-life facility located in Malvern, Pa. to the Bioanalytical department for pharmacokinetic analysis. The concentration of CBD in these 72 plasma samples was measured using high-performance liquid chromatography (HPLC) with tandem mass spectrometry (MS/MS) detection.\nIn-life Study Design: In-life Study 1901002-01 was performed at the in-life testing facility at Alliance Pharma. Four (4) groups of 21 CD-1 mice each (84 total) were administered a single topical dose of CBD. Mice in Group 1 were administered Formulation A at a strength of 2.5% CBD. Mice in Group 2 were administered Formulation B at the same strength of 2.5% CBD. Mice in Group 3 were administered Formulation C at a strength of 5% CBD, and mice in Group 4 were administered Formulation C at a strength of 2.5% CBD. The treatment scheme is summarized below.\nAnimals in each group received topical administration of either 2.5% o 5% CBD using a 1 ml syringe to draw up exactly 100 μl. Compound was applied in the shaved area only. Each group received a different formulation of the compound.\nSample Collection, Processing, and Shipment: Blood samples were collected at the in-life facility at the following time points: 0.25, 0.5, 1, 2, 4, and 8 hours post-dose from 72 mice in Groups 1 through 4 (18 from each treatment group). Target volume was less than or equal to 0.2 ml. The blood was collected via trunk puncture into tubes using K2 EDTA as an anticoagulant. The collected blood samples were kept on wet ice before being centrifuged. Blood samples were centrifuged as soon as possible after blood collection at approximately 10,000 rpm for about 10 minutes to separate the plasma. Approximately 0.2 mL of each plasma sample was transferred into labeled Eppendorf tubes. Each tube was stored in a freezer set to −20° C. or lower. No blood was collected from 12 (3 from each treatment group) of the 84 mice enrolled in the in-life study; thus, the total number of plasma samples that were transferred to the Alliance Pharma Bioanalytical department for bioanalysis was 72.\nAssay Procedures: For analysis of CBD, a 25-μL aliquot of each study sample was mixed with 25 μL of acetonitrile/water (50:50, v/v). Samples were then extracted by protein precipitation using acetonitrile containing the internal standard, tolbutamide (25 ng/mL). A portion of the supernatant was diluted in deionized water and used for the analysis of CBD.\nData Acquisition and Processing: The LC-MS/MS data acquisition was performed on a Shimadzu Nexera X2 LC system coupled with an AB SCIEX Triple Quad 5500 mass spectrometer. Chromatograms were integrated using Analyst 1.6.2 software. A weighted (1/x^2, x=concentration) linear regression was used to generate the calibration curve for CBD. The concentration of CBD was calculated using the peak area ratio of analyte to internal standard based on the standard curve. Mean, standard deviation, precision, accuracy, and assay variability were calculated using Microsoft Excel software.\nPharmacokinetic Analysis: Software—The PK parameters were determined using a non-compartmental analysis tool, namely, Phoenix WnNonlin 6.3 software (Pharsight Corporation, St. Louis, Mo.). […]", "key": {"[1]": {"settings": "Group 1, AEM.CBD.006 Formulation A 2.5% CBD, mean dose 78.69 mg/kg"}, "[2]": {"settings": "Group 2, AEM.CBD.007 Formulation B 2.5% CBD, mean dose 76.61 mg/kg"}, "[3]": {"settings": "Group 3, KBM.CBD.010 Formulation C 5% CBD, mean dose 155.24 mg/kg"}, "[4]": {"settings": "Group 4, KBM.CBD.011 Formulation C 2.5% CBD, mean dose 75.76 mg/kg"}}, "data": [{"smiles": "C=C(C)[C@@H]1CCC(C)=C[C@H]1c1c(O)cc(CCCCC)cc1O", "note": "[Cannabidiol]", "values": [{"measurement": "AUCinf", "setting": "[1]", "result": 1865, "unit": "ng·h/mL"}, {"measurement": "AUClast", "setting": "[1]", "result": 1758, "unit": "ng·h/mL"}, {"measurement": "Cmax", "setting": "[1]", "result": 427.149, "unit": "ng/mL"}, {"measurement": "t1/2", "setting": "[1]", "result": 1.78, "unit": "h"}, {"measurement": "tmax", "setting": "[1]", "result": 2.00, "unit": "h"}, {"measurement": "AUCinf", "setting": "[2]", "result": 1647, "unit": "ng·h/mL"}, {"measurement": "AUClast", "setting": "[2]", "result": 1563, "unit": "ng·h/mL"}, {"measurement": "Cmax", "setting": "[2]", "result": 360.351, "unit": "ng/mL"}, {"measurement": "t1/2", "setting": "[2]", "result": 1.70, "unit": "h"}, {"measurement": "tmax", "setting": "[2]", "result": 2.00, "unit": "h"}, {"measurement": "AUCinf", "setting": "[3]", "result": 3533, "unit": "ng·h/mL"}, {"measurement": "AUClast", "setting": "[3]", "result": 3067, "unit": "ng·h/mL"}, {"measurement": "Cmax", "setting": "[3]", "result": 602.168, "unit": "ng/mL"}, {"measurement": "tmax", "setting": "[3]", "result": 4.00, "unit": "h"}, {"measurement": "AUCinf", "setting": "[4]", "result": 1514, "unit": "ng·h/mL"}, {"measurement": "AUClast", "setting": "[4]", "result": 1410, "unit": "ng·h/mL"}, {"measurement": "Cmax", "setting": "[4]", "result": 331.560, "unit": "ng/mL"}, {"measurement": "t1/2", "setting": "[4]", "result": 1.92, "unit": "h"}, {"measurement": "tmax", "setting": "[4]", "result": 1.00, "unit": "h"}]}]}
